# pEC50, pIC50: −log10 of the molar value.
# Legend:
# [1] = system: HUVEC; assay: Protection against H2O2-induced damage in HUVEC; format: functional, cell-based; conditions: Homo sapiens
# [2] = system: HUVEC; assay: Protection against H2O2-induced damage in HUVEC preincubated for 0.5 hrs followed by H2O2 addition and measured after 12 hrs; format: functional, cell-based; conditions: Homo sapiens
# [3] = Half life in Sprague-Dawley rat at 20 mg/kg, iv; format: ADME, organism-based; conditions: in vivo
# [4] = system: ECV-304; assay: Protection against H2O2-induced damage in human ECV304 cells preincubated for 24 hrs followed by H2O2 addition and measured after 12 hrs by MTT assay; format: functional, cell-based
# [5] = system: Staphylococcus aureus; assay: Antibacterial activity against Staphylococcus aureus; format: functional
# [6] = system: Staphylococcus epidermidis; assay: Antibacterial activity against Staphylococcus epidermidis; format: functional
# [7] = system: HUVEC; assay: Potency index, ratio of ligustrazine EC50 to compound EC50 for protection against H2O2-induced damage in HUVEC; format: functional, Homo sapiens
# [8] = system: PC-12; assay: Neuroprotection against CoCl2-induced toxicity in rat PC12 cells preincubated for 36 hrs followed by CoCl2 addition measured after 12 hrs by MTT assay; format: functional, cell-based
# [9] = system: Thoracic aorta; assay: Vasodilatory activity in Sprague-Dawley rat thoracic aorta rings assessed as reduction in KCl-induced contraction; format: functional, tissue-based
# [10] = system: Bel-7402; assay: Antiproliferative activity against human Bel7402 cells; format: functional, cell-based
# [11] = system: A549; assay: Antiproliferative activity against human A549 cells; format: functional, cell-based
# [12] = system: HCT-8; assay: Antiproliferative activity against human HCT8 cells; format: functional, cell-based
# [13] = system: BGC-823; assay: Antiproliferative activity against human BGC823 cells; format: functional, cell-based
# [14] = system: A2780; assay: Antiproliferative activity against human A2780 cells; format: functional, cell-based
# [15] = system: HepG2; assay: Antiproliferative activity against human HepG2 cells; format: functional, cell-based
# [16] = system: HT-29; assay: Antiproliferative activity against human HT-29 cells; format: functional, cell-based
# [17] = system: HeLa; assay: Antiproliferative activity against human HeLa cells; format: functional, cell-based
# [18] = system: MDCK; assay: Antiproliferative activity against MDCK cells; format: cell-based; conditions: Canis lupus familiaris
# [19] = system: Bel-7402; assay: Antiproliferative activity against human Bel7402 cells after 72 hrs by MTT assay; format: functional, cell-based; conditions: Bel-7402, 72 h
# [20] = system: HT-29; assay: Antiproliferative activity against human HT-29 cells after 72 hrs by MTT assay; format: functional, cell-based; conditions: HT-29, 72 h
# [21] = system: HepG2; assay: Antiproliferative activity against human HepG2 cells after 72 hrs by MTT assay; format: functional, cell-based; conditions: HepG2, 72 h
# [22] = system: MCF7; assay: Antiproliferative activity against human MCF7 cells after 72 hrs by MTT assay; format: functional, cell-based; conditions: MCF7, 72 h
# [23] = system: HeLa; assay: Antiproliferative activity against human HeLa cells after 72 hrs by MTT assay; format: functional, cell-based
# [24] = system: PC-12; assay: Neuroprotection against CoCl2-induced toxicity in rat PC12 cells; format: functional, cell-based
# [25] = system: Mus musculus; assay: Anti-inflammatory activity in Kunming mouse assessed as inhibition of xylene-induced ear edema at 100 mg/kg, ig administered once daily for 7 days relative to control; format: functional; conditions: po, 168 h
# [26] = system: MDCK; assay: Antiproliferative activity against MDCK cells at 10 uM after 72 hrs by MTT assay relative to control; format: cell-based, Canis lupus familiaris; conditions: dog
# [27] = system: HepG2; assay: Antiproliferative activity against human HepG2 cells at 10 uM after 72 hrs by MTT assay relative to control; format: functional
# [28] = system: Platelet; assay: Antiplatelet activity in rabbit platelet rich plasma assessed as inhibition of ADP-induced platelet aggregation by cytometry; format: functional, cell-based; conditions: Oryctolagus cuniculus
# [29] = system: ECV-304; assay: Potency index, ratio of ligustrazine EC50 to compound EC50 for protection against H2O2-induced damage in human ECV304 cells; format: functional
smiles,measurement,setting,value
CC(=O)OC(C(=O)NCc1nc(C)c(C)nc1C)c1ccccc1 (configuration not stated),pEC50,[1],4.15
COc1cccc(/C=C/c2nc(C)c(C)nc2C)c1O,pEC50,[2],4.54
CCOC(=O)/C=C/c1cc(OC)c(OC(=O)c2nc(C)c(C)nc2C)c(OC)c1,half-life,[3],3.03 h
CNC(=N)NC(=O)c1nc(C)c(C)nc1C,pEC50,[4],4.01
Cc1nc(C)c(COc2ccc(N3CC(CNC(=O)CCl)OC3=O)cc2F)nc1C (configuration not stated),MIC,[5],8 µg/mL
same,MIC,[6],4 µg/mL
Cc1nc(C)c(/C=C/c2ccccc2Cl)nc1C,Ratio EC50,[7],30000
same,pEC50,[2],7.60
Cc1nc(C)c(COCc2ccc(OCc3nc(C)c(C)nc3C)cc2)nc1C,pEC50,[8],5.78
Cc1nc(C)c(CNC(=O)c2ccncc2)nc1C,pEC50,[1],4.43
Cc1nc(C)c(COc2ccc(COc3ccc(C=O)cc3)cc2)nc1C,pEC50,[9],3.12
CCOC(=O)c1ccc(OCc2ccc(OCc3nc(C)c(C)nc3C)cc2)cc1,pEC50,[9],3.12
COc1cc(/C=C/C(=O)CC(=O)/C=C/c2ccc(OCc3nc(C)c(C)nc3C)c(OC)c2)ccc1OCc1nc(C)c(C)nc1C,IC50,[10],6.39 µg/mL
same,IC50,[11],5.89 µg/mL
same,IC50,[12],7.11 µg/mL
same,IC50,[13],5.47 µg/mL
same,IC50,[14],5.54 µg/mL
Cc1nc(C)c(COC(=O)[C@]23CCC(C)(C)C[C@H]2C2=CC[C@@H]4[C@@]5(C)CC[C@H](OC(=O)[C@@H](N)CCCCN)C(C)(C)[C@@H]5CC[C@@]4(C)[C@]2(C)CC3)nc1C,pIC50,[13],5.61
same,pIC50,[15],5.64
same,pIC50,[16],5.63
same,pIC50,[17],5.62
same,pIC50,[18],5.64
Cc1nc(C)c(C)nc1C [LIGUSTRAZINE],pEC50,[2],3.10
same,pEC50,[4],3.26
same,pEC50,[1],3.22
same,pEC50,[9],2.63
same,pIC50,[19],< 4.70
same,pIC50,[20],< 4.70
same,pIC50,[21],< 4.70
same,pIC50,[22],< 4.70
same,pIC50,[23],< 4.70
same,pEC50,[24],4.19 to 4.22
same,pEC50,[8],4.19
Cc1nc(C)c(COC(=O)[C@]23CCC(C)(C)C[C@H]2C2=CC[C@@H]4[C@@]5(C)CC[C@H](O)C(C)(C)[C@@H]5CC[C@@]4(C)[C@]2(C)CC3)nc1C,pIC50,[15],4.67
same,pIC50,[16],< 4.60
same,pIC50,[17],5.06
Cc1nc(C)c(COC(=O)c2cc(O)c3c(c2)C(=O)c2cccc(O)c2C3=O)nc1C,inhibition in vivo at 100 mg/kg,[25],76.4%
COc1cc(/C=C/C(=O)CC(=O)/C=C/c2ccc(O)c(OC)c2)ccc1O [CURCUMIN],IC50,[10],6.5 µg/mL
same,IC50,[11],6.52 µg/mL
same,IC50,[12],6.28 µg/mL
same,IC50,[13],6.81 µg/mL
same,IC50,[14],6.52 µg/mL
Cc1nc(C)c(COC(=O)[C@]23CCC(C)(C)C[C@H]2C2=CC[C@@H]4[C@@]5(C)CC[C@H](OC(=O)CN)C(C)(C)[C@@H]5CC[C@@]4(C)[C@]2(C)CC3)nc1C,pIC50,[13],5.51
same,pIC50,[15],5.70
same,pIC50,[16],5.60
same,pIC50,[17],5.49
same,pIC50,[18],5.31
COc1ccc(/C=C/C(=O)NCc2nc(C)c(C)nc2C)c(OC)c1OC,pEC50,[24],4.60
Cc1nc(C)c(COCCc2ccc(OCc3nc(C)c(C)nc3C)cc2)nc1C,pEC50,[8],5.69
Cc1nc(C)c(COC(=O)[C@]23CC[C@@H](C(C)C)[C@H]2[C@@H]2CC[C@@H]4[C@@]5(C)CC[C@H](O)C(C)(C)[C@@H]5CC[C@@]4(C)[C@]2(C)CC3)nc1C,pIC50,[19],5.38
same,pIC50,[20],5.28
same,pIC50,[21],5.35
same,pIC50,[22],5.37
same,pIC50,[23],5.36
same,Activity,[26],26.5%
same,Activity,[27],99.87%
Cc1nc(C)c(C(=O)Oc2ccc(CO[N+](=O)[O-])cc2)nc1C,pEC50,[9],4.03
COc1cc(C(=O)OCc2nc(C)c(C)nc2C)ccc1OCc1nc(C)c(C)nc1C,pEC50,[24],5.37
Cc1nc(C)c(COc2ccc(COC(=O)c3cccnc3)cc2)nc1C,pEC50,[9],3.42
COc1ccc(C(=O)NCc2cccnc2)cc1C(=O)NCc1cccnc1 [PICOTAMIDE],pIC50,[28],1.30
O=C(O)c1cc(O)c2c(c1)C(=O)c1cccc(O)c1C2=O [RHEIN],inhibition in vivo at 100 mg/kg,[25],65.5%
Cc1nc(C)c(COc2ccc(N3CC(CNC(=O)CCl)OC3=O)cc2)nc1C (configuration not stated),MIC,[5],8 µg/mL
same,MIC,[6],8 µg/mL
Cc1nc(C)c(CNC(=O)C(O)c2ccccc2)nc1C (configuration not stated),pEC50,[1],4.26
Cc1nc(C)c(CCOc2cccc3c2C(=O)c2c(OCCc4nc(C)c(C)nc4C)cc(C(=O)O)cc2C3=O)nc1C,inhibition in vivo at 100 mg/kg,[25],17.5%
COc1ccc(/C=C/c2nc(C)c(C)nc2C)c(OC)c1OC,pEC50,[2],5.24
COc1cc(COCc2nc(C)c(C)nc2C)ccc1OCc1nc(C)c(C)nc1C,pEC50,[8],5.97
Cc1nc(C)c(C(=O)NC(=N)NCc2ccc(Cl)c(Cl)c2)nc1C,pEC50,[4],4.03
Cc1nc(C)c(COC(=O)CC[C@@H](C)[C@H]2CC[C@H]3[C@@H]4CC[C@@H]5C[C@H](O)CC[C@]5(C)[C@H]4C[C@H](O)[C@]23C)nc1C,IC50,[10],8.01 µg/mL
same,IC50,[11],6.69 µg/mL
same,IC50,[12],7.43 µg/mL
same,IC50,[13],6.66 µg/mL
same,IC50,[14],6.62 µg/mL
Cc1nc(C)c(C(=O)NC(=N)NCc2cccc(Cl)c2)nc1C,pEC50,[4],4.23
same,Ratio EC50,[29],10
COc1ccc(C(=O)NCc2nc(C)c(C)nc2C)cc1C(=O)NCc1nc(C)c(C)nc1C,pIC50,[28],2.55
COc1cc(C(=O)c2cccc(N(C)C)c2)ccc1OCc1nc(C)c(C)nc1C,pEC50,[24],4.76

# From ChEMBL document CHEMBL4145538, “Recent progress in the structural modification and pharmacological activities of ligustrazine derivatives” (Eur J Med Chem, 2018)
